# Target: T. brucei PKAR-PKAC1 holoenzyme (Trypanosoma brucei, UniProt Q9GU80)
# Experiment: biochemical
# Format: biochemical
compound,measurement,value
"N#Cc1cn([C@@H]2O[C@H](CO)[C@@H](O)[C@H]2O)c2ncnc(O)c12 [7-CN-7-C-Ino, 7-Cyano-7-deazainosine]",EC50,6.5 ± 4.6 nM
